Test results taken from publication PMC9666555, “Genuine selective caspase-2 inhibition with new irreversible small peptidomimetics” (Cell Death & Disease, 2022).
“And” between values parts separate entries of the source, which are not always exact repeats. Identical values can stand only once. Non-standard residues stand in square brackets, D forms with d. Residues, ends and D or L forms follow the SMILES beside them. ξ: configuration not given here. *: point of attachment. ξTHIQ1CO(6-Me) = Cc1ccc2c(c1)CCNC2C(=O)O; X1 = O=C(O)CC(N*)C(=O)COc1c(F)cccc1F; Quinaldoyl = O=C(c1ccc2ccccc2n1)*

Columns and labels:
recombinant human Casp2 = biological target: T1, recombinant human Casp2 (Homo sapiens, UniProt P42575); assay: Enzyme mechanistic studies (Ki, k3, k3/KI), Caspase-2; type: biochemical
T1 sequence (P42575 170-325 limits assumed): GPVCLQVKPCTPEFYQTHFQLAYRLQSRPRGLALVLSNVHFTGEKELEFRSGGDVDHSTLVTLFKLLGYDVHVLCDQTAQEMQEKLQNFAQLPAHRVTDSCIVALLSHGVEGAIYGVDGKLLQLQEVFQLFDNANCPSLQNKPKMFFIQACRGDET
T1 sequence (P42575 348-452 limits assumed): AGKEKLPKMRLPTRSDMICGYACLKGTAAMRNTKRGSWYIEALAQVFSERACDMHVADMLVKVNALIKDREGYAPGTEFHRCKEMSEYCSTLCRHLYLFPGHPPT
Method: (§1) For reversible inhibitors, the mechanisms of inhibition were determined by varying substrate and inhibitor concentrations and using Lineweaver−Burk representations to determine the inhibition constants Ki of competitive inhibitors (Ki = [E][I]/[EI]). For suicide inhibitors, inactivation can be represented by the minimum kinetic scheme (Eq. 2), where E and I are the free forms of enzyme and inhibitor, E * I a kinetic chimera of the Michaelis complex and E − I the covalent complex (inactivated enzyme).2 E+I⇄KIE*I→k3E−I
(§2) KI and k3 are the kinetic constants characterizing the inactivation process and the k3/KI ratio is an index of the inhibitory potency. The first-order rate constant, k3, and the apparent dissociation constant, KI, were determined for Caspase-2 and -3 using the progress curve method. Briefly, the enzyme activities were measured continuously for 120 min. To determine the kinetic parameters, progress curves were obtained at several inhibition concentrations using fixed substrate concentration. The product released for each inhibitor concentration was plotted versus the time following Eq. 3 where the constant π depended on [I]’, a modified inhibitor concentration due to substrate competition, according to Eq. 4. [I]’ is defined by Eq. 5, where KM was Michaelis constant for the enzymatic hydrolysis of the appropriate fluorogenic substrate. The ratio k3/KI was obtained by fitting the experimental data to the equations (F.U., fluorescence unit):3 F.U.=∫0tvidt+F.U0−vo×e^−π×t/π+F.U.0 4 π=k3×[I]^′/KI+[I]^′ 5 [I]^′=[I]/1+S/KM
Linear and nonlinear regression fits of the experimental data to the equations were performed with KaleidaGraph software. The experimental conditions were [Caspase-2]0 = 0.2 nM, [Ac-VDVAD-AMC]0 = 25 µM and [Caspase-3]0 = 0.1 nM, [Ac-DEVD-AMC]0 = 10 µM; [I]0 = 0–100 µM.

recombinant human Casp3 = biological target: T2, recombinant human Casp3 (Homo sapiens, UniProt P42574); assay: Enzyme mechanistic studies (Ki, k3, k3/KI), Caspase-3; type: biochemical; settings: irreversible inhibitors, progress curve method
T2 sequence (P42574 29-175 limits assumed): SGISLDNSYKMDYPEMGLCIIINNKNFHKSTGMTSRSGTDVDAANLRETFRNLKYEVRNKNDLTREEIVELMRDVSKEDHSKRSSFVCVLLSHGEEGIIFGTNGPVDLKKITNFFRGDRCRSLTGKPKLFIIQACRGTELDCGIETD
T2 sequence (P42574 176-277 limits assumed): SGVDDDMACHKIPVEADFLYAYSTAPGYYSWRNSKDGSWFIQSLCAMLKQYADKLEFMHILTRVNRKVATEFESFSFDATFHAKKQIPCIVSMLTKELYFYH
Method: as §1, §2
Linear and nonlinear regression fits of the experimental data to the equations were performed with KaleidaGraph software.

Cathepsin-L = Cathepsin-L (Homo sapiens, UniProt P07711); assay: Non-caspase enzyme assay, Cathepsin-L; type: biochemical; settings: concentrations up to 10 µM
Cathepsin-L, sequence (P07711 114-333): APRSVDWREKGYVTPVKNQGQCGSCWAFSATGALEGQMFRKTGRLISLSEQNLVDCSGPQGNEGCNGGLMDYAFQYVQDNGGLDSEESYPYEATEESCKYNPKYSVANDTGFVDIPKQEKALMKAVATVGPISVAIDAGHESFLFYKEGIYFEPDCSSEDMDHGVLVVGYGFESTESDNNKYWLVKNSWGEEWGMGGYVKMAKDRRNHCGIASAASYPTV
Method: (§3) Stock solutions were stored at −80 °C. […]
(§4) Non-caspase enzyme assays
(§5) The human pro- kallikrein-1 (pro-hK1) was activated in a buffer containing: Tris-HCl 50 mM, CaCl2 10 mM, NaCl 150 mM, Brij-35 0,05% pH 7,5. Human pro-kallikrein-6 and -8 (pro-hK6 and 8 were activated using Lysyl-endopeptidase (Wako- BioProducts®) at a 1/500 weight ratio, in a buffer containing 50 mM Tris and 0,05% Brij-35 (pH 8). Kinetics using non-caspase enzymes for selectivity studies were done according to the following conditions.
(§6) Enzymes Substrates Buffers
(§7) Cathepsine B (0.2 nM) z-RR-AMC 20 µM Acétate de sodium 0,1 M; EDTA 1mM ; […]
(§8) Cathepsine L (1.2 nM) RLR-AMC 25 µM Acétate de sodium 0,1 M; EDTA 1mM ; […]
(§9) Cathepsine D (0.1 nM) Mca-Gly-Ly s-Pro-Ile-Leu-Phe-Phe- Citrate de Sodium 0,1 M; EDTA 2 mM ; Arg-Leu-Lys(Dnp)-D-Arg-NH2 10 µM Brij-35 0,01%; pH 4 hK1 (4 nM) Boc-VPR-AMC 100µM Tris 50mM; Citrate 1M; Brij-35 0.05%; pH7 hK6 (2 nM ) Boc-QAR -AMC 100 µM Tris 50mM; Citrate 1M; Brij-35 0.05%; pH7 hK8 (1 nM) Boc-VPR-AMC 100µM Tris 50mM; Citrate 1M; Brij-35 0.05%; pH7
(§10) Thrombine (10 mU/mL) Boc-VPR-AMC 100µM Tris 50mM; Citrate 1M; Brij-35 0.05%; pH7 Plasmine (4 nM ) Boc-QAR -AMC 100µM Tris 50mM; Citrate 1M; Brij-35 0.05%; pH7 Trypsine (0.1 nM) Boc-QAR -AMC 100µM Tris 50mM; Citrate 1M; Brij-35 0.05%; pH7

Cathepsin-D = Cathepsin-D (Homo sapiens, UniProt P07339); assay: Non-caspase enzyme assay, Cathepsin-D; type: biochemical; settings: concentrations up to 10 µM
Cathepsin-D, sequence (P07339 65-412): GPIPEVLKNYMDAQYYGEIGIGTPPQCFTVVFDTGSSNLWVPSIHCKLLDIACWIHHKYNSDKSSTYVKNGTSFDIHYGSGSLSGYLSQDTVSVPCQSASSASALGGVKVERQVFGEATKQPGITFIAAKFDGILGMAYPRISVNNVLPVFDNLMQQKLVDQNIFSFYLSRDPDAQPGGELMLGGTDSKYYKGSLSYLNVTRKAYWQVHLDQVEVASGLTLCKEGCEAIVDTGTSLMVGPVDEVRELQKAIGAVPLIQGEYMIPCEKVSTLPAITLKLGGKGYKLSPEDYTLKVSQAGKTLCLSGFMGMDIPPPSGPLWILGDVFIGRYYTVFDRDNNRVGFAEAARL
Method: as §3, §4, §5, §6, §7, §8, §9, §10

Trypsin = assay: Non-caspase enzyme assay, Trypsin; type: biochemical, human; settings: concentrations up to 10 µM
Method: as §3, §4, §5, §6, §7, §8, §9, §10

Kallikrein-1 = biological target: T3, Kallikrein-1 (Homo sapiens, UniProt P06870); assay: Non-caspase enzyme assay, Kallikrein-1; type: biochemical; settings: concentrations up to 10 µM
T3 construct: purchased R&D Systems 2337-SE-010
T3 sequence (P06870 25-262): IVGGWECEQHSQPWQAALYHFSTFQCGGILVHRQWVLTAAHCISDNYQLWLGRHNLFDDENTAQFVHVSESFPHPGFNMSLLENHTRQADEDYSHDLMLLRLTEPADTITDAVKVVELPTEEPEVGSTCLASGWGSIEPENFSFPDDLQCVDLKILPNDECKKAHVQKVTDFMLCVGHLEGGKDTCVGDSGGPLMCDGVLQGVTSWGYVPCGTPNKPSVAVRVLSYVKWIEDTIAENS
Method: as §3, §4, §5, §6, §7, §8, §9, §10

Kallikrein-6 = biological target: T4, Kallikrein-6 (Homo sapiens, UniProt Q92876); assay: Non-caspase enzyme assay, Kallikrein-6; type: biochemical; settings: concentrations up to 10 µM
T4 construct: purchased R&D Systems 5164-SE-010
Method: as §3, §4, §5, §6, §7, §8, §9, §10

[1] = tested on: Swiss mice hippocampal neurons; assay: Aβ oligomer-induced dendritic spine loss in hippocampal primary cultures; type: cell-based, mouse; settings: 100 nM Aβ1-42 oligomers 6 h
Method: For the monoculture model (MBBT4 devices), 20 × 10^3 hippocampal neurons were seeded in each chamber. For the compartmentalized coculture model (neuronal diode in MBBT5 devices), 40 × 10^3 cortical cells and 15 × 10^3 hippocampal cells were seeded in each input chamber and output chamber, respectively. The culture medium was renewed every 5 days. Microfluidic chips were placed in Petri dishes containing 0.1% EDTA (Sigma) and incubated at 37 °C in a 5% CO2 atmosphere. In the neuronal diodes, cortical axons entered the microchannels and reached the hippocampi chamber in around 4–5 days. In both the monoculture and coculture systems, cells were cultured for 3 weeks to allow high dendrites and synapse density and intense electrical firing.
Cells were treated with caspase inhibitors and/or Aβ1–42 at 20 days in vitro. For the hippocampal monocultures, the culture medium was removed and replaced by fresh medium optionally containing 10 nM Aβ1–42 oligomers or monomers, with or without caspase inhibitors. After 6 h, cells were fixed, permeabilized, and subjected to immunolabelling. For cortico-hippocampal compartmentalized cocultures, the medium of the input chamber (cortical) was replaced by fresh medium optionally containing 100 nM Aβ1–42 oligomers or monomers, whereas the medium of the output (hippocampal) chamber was replaced by fresh medium optionally containing, or not, caspases inhibitors. […]
Immunostaining was performed directly in microfluidic chambers as described [38]. […] Images were analyzed using ImageJ software (NIH, Bethesda, MD, USA).
Synaptic disconnection was assessed as described [39] with slight modifications. Briefly, in hippocampal monocultures, synaptic disconnection was assessed through fluorescence microscopy by counting phalloidin clusters affixed to MAP2 and Bassoon. In cortico-hippocampal compartmentalized cocultures, synaptic disconnection was assessed by counting α-Synuclein presynaptic clusters affixed to MAP2-positive hippocampal dendrites. […] The images were similarly processed with ImageJ software before being used for quantification: the brightness/contrast of all control images were optimized manually to eliminate the background and to maximize the signal. The means of the minimum and maximum intensities were then calculated in the control condition and these settings were applied to all images. The brightness/contrast of all images was optimized manually to eliminate the background and maximize the intensity of the signal. α-synuclein/ MAP2 and Phalloidin/MAP2/Bassoon merges were then used for quantification. The number of spines was determined by counting individual clusters along ten dendritic regions (100 µm length each) in three independent experiments for every epitope. Only synapses detected on or near the neurites were included for analysis.

[2] = biological target: T5, human active recombinant caspase-2 (Homo sapiens, UniProt P42575); assay: In vitro caspase activity and inhibition assay (IC50), Caspase-2; type: biochemical
T5 sequence (P42575 170-325 limits assumed): T1 sequence (P42575 170-325 limits assumed)
T5 sequence (P42575 348-452 limits assumed): T1 sequence (P42575 348-452 limits assumed)
Method: Stock solutions were stored at −80 °C.

[3] = biological target: T6, human active recombinant Caspase-3 (Homo sapiens, UniProt P42574); assay: In vitro caspase activity and inhibition assay (IC50), Caspase-3; type: biochemical; settings: 30 min preincubation; 0.1 nM Caspase-3, 10 µM Ac-DEVD-AMC; read-out: Enzyme assays Casp3 IC50 (converted)
T6 sequence (P42574 29-175 limits assumed): T2 sequence (P42574 29-175 limits assumed)
T6 sequence (P42574 176-277 limits assumed): T2 sequence (P42574 176-277 limits assumed)
Method: The human active recombinant Caspase-3 (#707-C3) was purchased from R&D Systems (Minneapolis, USA). […] Stock solutions were stored at −80 °C. […] Caspase inhibitors were solubilized in DMSO at 10 mM and stored at −80 °C.
Initial velocity (V0) was determined from the linear portion of the progress curve. The composition of the activity buffer was: 20 mM HEPES, pH 7.4; 0.1% CHAPS, 5 mM DTT, 2 mM EDTA; 800 mM sodium succinate for Caspase-2 (0.2 nM) with 25 µM of Ac-VDVAD-7-amino-3-methylcoumarin (AMC) and 20 mM HEPES, pH 7.4; 0.1% CHAPS, 5 mM DTT, 2 mM EDTA; supplemented with 1 mg/mL of stabilizing agent bovine serum albumin (BSA) for Caspase-3 (0.1 nM) with 10 μM of Ac-DEVD-AMC. Compounds (0.001–100 µM) were tested in duplicate for each inhibitor concentration to detect their inhibitory potential. Enzymes and compounds were incubated for 30 min before initiating enzymatic reaction by adding substrate. Initial rates determined in control experiments (V0) were considered as 100% of the caspase activity; initial rates that were below 100% in the presence of tested compound (Vi) were considered as inhibition. The inhibitory activity of compounds was expressed as IC50 (Inhibitor concentration giving 50% inhibition). The values of IC50 were calculated by fitting the experimental data using Mars data Analysis 2.0 and KaleidaGraph software.1 %Inhibition=1001−Vi/V0=100I0/IC50+I0

[4] = tested on: cell lines or primary neurons in culture; assay: Toxicity of inhibitor added to cultured cells; type: cell-based; settings: at least up to 100 µM; not shown
[5] = irreversible inhibitors, progress curve method

SMILES	selectivity: inactivation rate (k3/Ki) on Casp2 as compared to Casp3 (recombinant human Casp2)	Casp2 k3 (recombinant human Casp2; [5])	Casp2 k3/KI (recombinant human Casp2; [5])	Ki (recombinant human Casp2; irreversible inhibitors, progress curve method, read-out: Casp2 KI) [nM]	Casp3 k3 (recombinant human Casp3)	Casp3 k3/KI (recombinant human Casp3)	Ki (recombinant human Casp3; read-out: Casp3 KI) [nM]	effect on Cathepsin-L (Cathepsin-L)	effect on Cathepsin-D (Cathepsin-D)	effect on Trypsin (Trypsin)	effect on Kallikrein-1 (Kallikrein-1)	effect on Kallikrein-6 (Kallikrein-6)	prevention of dendritic spine loss induced by oligomeric Aβ ([1]; pretreatment at 0.1 µM) [%]	prevention of dendritic spine loss induced by oligomeric Aβ ([1]; pretreatment at 1 µM) [%]	prevention of dendritic spine loss induced by oligomeric Aβ ([1]; pretreatment at 10 µM) [%]	IC50 [2] [nM]	IC50 [3] [nM]	KI (inactivation) (recombinant human Casp2; [5]) [nM]	KI (inactivation) (recombinant human Casp3) [nM]	toxicity [4]
CC(C)[C@H](NC(=O)c1ccc2ccccc2n1)C(=O)N[C@@H](CC(=O)O)C(=O)N[C@H](C(=O)N1CC[C@H](CC(C)(C)C)[C@@H]1C(=O)NC(CC(=O)O)C(=O)COc1c(F)cccc1F)C(C)C (stereo partly shown) [LJ3a]	~1000 times and 946 times	5 ± 7 × 10^−4 ms^−1	1,708,996 M^−1 s^−1	2.8 ± 0.8	0.7 ± 9 × 10^−5 ms^−1	1807 M⁻¹ s⁻¹	400 ± 93.3	very limited or no effect	very limited or no effect	very limited or no effect	very limited or no effect	very limited or no effect	59.63	89.29	97.5	–	–	–	–	–
Cc1ccc2c(c1)CCN(C(=O)[C@@H](NC(=O)[C@H](CC(=O)O)NC(=O)[C@@H](NC(=O)c1ccc3ccccc3n1)C(C)C)C(C)C)C2C(=O)NC(CC(=O)O)C(=O)COc1c(F)cccc1F (stereo partly drawn) [LJ2, Quinolin-2-carbonyl-VDV-(methyl-isoquinolyl)-D-CH2-O(2,6F2)Ph] (Quinaldoyl-VDV[ξTHIQ1CO(6-Me)]-X1)	25 times and ~ 25 times	4,91 ms^−1	~ 1,322,875 M^−1 s^−1 and 1 322 875 M^−1 s^−1 and ~ 1,300,000 M^−1 s^−1	–	2,37 ms^−1	51,992 M^−1 s^−1 and 51 992 M^−1 s^−1	–	–	–	–	–	–	–	–	–	0.37 ± 0.01	140 ± 5	3.68	47	devoid of any toxicity
